{"source": "patent US20110207793A1", "about": "“1-AMINOCYCLOHEXANE DERIVATIVES FOR THE TREATMENT OF SLEEP DISORDERS” (priority 2008, published 2011)", "key": {"[1]": {"test_system": "subjects with subjective tinnitus of at least moderate severity", "assay": "Double-blind placebo-controlled pilot trial of neramexane in tinnitus: question 12/5 (sleep item) of the structured tinnitus interview", "assay_type": "in vivo, human", "conditions": "for TI Sleep item 12/5: Prevented (%) / TI Sleep item 12/5: Prevented n / TI Sleep item 12/5: affected (%) / TI Sleep item 12/5: affected n / TI Sleep item 12/5: no effect (%) / TI Sleep item 12/5: no effect n: ITT-OC", "experimental": "(§1) The objective of this pilot project was to conduct a clinical trial to assess the efficacy of neramexane as a treatment for tinnitus. The primary objective of this study was to compare the efficacy, tolerability and safety of neramexane mesylate at three different dosages (25, 50 or 75 mg/d) with placebo in subjects with subjective tinnitus of at least moderate severity.\n(§2) In a double-blind, multicenter, randomized, placebo-controlled, parallel-group study, the efficacy of neramexane in subjects suffering from tinnitus of at least moderate severity was assessed. Approximately 100 patients, who fulfilled particular inclusion criteria and met none of particular exclusion criteria, were randomized to each of four double-blind treatment groups (neramexane mesylate 25, 50, 75 mg/d or placebo), resulting in approximately 400 patients in total.\nThe double-blind, 16-week treatment period consisted of a 4-week uptitration period and a 12-week fixed-dose treatment period at unchanged maintenance b.i.d. dosing. In case of poor tolerability, however, the investigator could consider a dose reduction by 25 mg/d (or placebo, respectively). After the treatment phase, there was a 4-week follow-up period with no active treatment and concomitant therapy restrictions. In total, this study involved seven study visits: screening, baseline, and at the end of weeks 4, 8, 12, 16, and 20.\nVisit 2 (baseline): The subject was asked about adverse events and changes in concomitant medication/disease, which events/changes were documented. The subject was evaluated for study eligibility based on a review of the inclusion/exclusion criteria. Trial procedures as well as allowed and forbidden concomitant medications were reviewed with the subject. An initial Tinnitus Interview was conducted. The subject also completed a TBF-12, HADS-D Questionnaire and GÜF Questionnaire (if applicable). The subject was enrolled in the study and study medication (placebo or neramexane) was dispensed as described below.\nVisit 6 (Week 16, end of treatment). This visit occurred at the end of the 12-week fixed-dose double-blind treatment period. The subject was asked about adverse events and changes in concomitant medication/disease, which changes are documented. A clinical laboratory evaluation was performed. A follow-up Tinnitus Interview was conducted, and the subject completed a TBF-12, HADS-D Questionnaire and GÜF Questionnaire (if applicable). Pure-tone audiometry (air conduction) was also conducted.\nVisit 7 (Week 20): This visit occurred at the end of the 4-week follow-up period after the last study medication dose. Review of concomitant medications as well as the occurrence of adverse events since the last visit is conducted with subject. A follow-up Tinnitus Interview was conducted, and the subject completed a TBF-12, HADS-D Questionnaire and GÜF Questionnaire (if applicable).\nNeramexane mesylate immediate release tablets (12.5 mg and 25 mg) and matching placebo tablets were administered as film coated tablets.\nStudy medication was dispensed at Visit 2 (baseline, day, 0). Each patient received one blister box containing 5 blister cards (including one reserve blister) of double-blind study medication (i.e., 32 tablets). Subjects were instructed to take 2 tablets twice daily (4 tablets/d), beginning the day after dispensing of the study medication, until they returned for their next study visit (Visit 3). For those subjects assigned to receive active medication, some placebo tablets were incorporated into the dosing regimen to ensure blinding during the uptitration period. The target fixed-maintenance dose of 25, 50, or 75 mg neramexane mesylate/d was administered starting with the fifth week of double-blind treatment and was continued throughout the study. […]"}, "[2]": {"biological_target": "alpha9/alpha10 nicotinic receptor (Rattus norvegicus, UniProt P43144+Q9JLB5)", "sequence (P43144 26-479)": "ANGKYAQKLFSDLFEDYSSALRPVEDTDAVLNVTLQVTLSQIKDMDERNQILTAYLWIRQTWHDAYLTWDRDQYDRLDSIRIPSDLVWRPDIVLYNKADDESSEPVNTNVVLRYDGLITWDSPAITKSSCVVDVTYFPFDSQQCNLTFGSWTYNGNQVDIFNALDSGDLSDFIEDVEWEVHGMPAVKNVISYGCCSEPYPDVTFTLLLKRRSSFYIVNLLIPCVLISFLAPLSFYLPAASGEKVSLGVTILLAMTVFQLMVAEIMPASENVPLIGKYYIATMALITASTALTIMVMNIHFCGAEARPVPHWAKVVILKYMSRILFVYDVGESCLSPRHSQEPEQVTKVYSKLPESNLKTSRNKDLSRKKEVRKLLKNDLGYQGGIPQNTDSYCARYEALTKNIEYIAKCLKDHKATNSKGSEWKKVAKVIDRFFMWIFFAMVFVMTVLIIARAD", "sequence (Q9JLB5 25-447)": "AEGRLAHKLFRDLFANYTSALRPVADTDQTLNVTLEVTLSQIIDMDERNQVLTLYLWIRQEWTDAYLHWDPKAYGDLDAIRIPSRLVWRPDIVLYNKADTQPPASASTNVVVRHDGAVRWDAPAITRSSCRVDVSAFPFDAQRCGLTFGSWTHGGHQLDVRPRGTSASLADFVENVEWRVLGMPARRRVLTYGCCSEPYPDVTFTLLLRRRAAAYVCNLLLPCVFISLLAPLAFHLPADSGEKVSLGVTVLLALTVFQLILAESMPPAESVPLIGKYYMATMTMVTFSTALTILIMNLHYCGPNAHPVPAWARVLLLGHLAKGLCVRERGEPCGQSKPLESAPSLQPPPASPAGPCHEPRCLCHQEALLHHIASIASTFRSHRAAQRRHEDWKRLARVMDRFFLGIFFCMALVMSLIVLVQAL", "conditions": "Plazas, et al., Eur J Pharmacol., 2007; cited from earlier work"}, "[3]": {"test_system": "subjects with subjective tinnitus of at least moderate severity", "assay": "Double-blind placebo-controlled pilot trial of neramexane in tinnitus: TBF-12", "assay_type": "in vivo, human", "conditions": "final daily doses of 50 or 75 mg, after 16-week double-blind treatment (Visit 6); distinct from placebo or low-dose (25 mg)", "experimental": "as §1, §2\nThe double-blind, 16-week treatment period consisted of a 4-week uptitration period and a 12-week fixed-dose treatment period at unchanged maintenance b.i.d. dosing. In case of poor tolerability, however, the investigator could consider a dose reduction by 25 mg/d (or placebo, respectively). […]\nVisit 1 (screening): After signing the consent form, the subject underwent a physical examination and clinical laboratory testing. Patient eligibility for the study was evaluated via a check of inclusion/exclusion criteria. […]"}, "[4]": {"conditions": "Follow-Up (Change from Baseline), 25 mg/d, N = 100"}, "[5]": {"conditions": "Follow-Up (Change from Baseline), 50 mg/d, N = 95"}, "[6]": {"conditions": "Follow-Up (Change from Baseline), 75 mg/d, N = 89"}, "[7]": {"conditions": "Week 16 Visit (Change from Baseline), 25 mg/d, N = 89"}, "[8]": {"conditions": "Week 16 Visit (Change from Baseline), 50 mg/d, N = 80"}, "[9]": {"conditions": "Week 16 Visit (Change from Baseline), 75 mg/d, N = 64"}}}
{"molecule": "CC1(C)CC(C)(C)CC(C)(N)C1", "note": "[Neramexane, 1-amino-1,3,3,5,5-pentamethylcyclohexane]", "values": [{"measurement": "TI Sleep item 12/5: Prevented (%)", "setting": "[1]; Baseline, 25 mg/d, N = 106", "value": 12.3, "unit": "%"}, {"measurement": "TI Sleep item 12/5: Prevented n", "setting": "[1]; Baseline, 25 mg/d, N = 106", "value": 13}, {"measurement": "TI Sleep item 12/5: affected (%)", "setting": "[1]; Baseline, 25 mg/d, N = 106", "value": 64.2, "unit": "%"}, {"measurement": "TI Sleep item 12/5: affected n", "setting": "[1]; Baseline, 25 mg/d, N = 106", "value": 68}, {"measurement": "TI Sleep item 12/5: no effect (%)", "setting": "[1]; Baseline, 25 mg/d, N = 106", "value": 23.6, "unit": "%"}, {"measurement": "TI Sleep item 12/5: no effect n", "setting": "[1]; Baseline, 25 mg/d, N = 106", "value": 25}, {"measurement": "TI Sleep item 12/5: Prevented (%)", "setting": "[1]; Baseline, 50 mg/d, N = 106", "value": 6.6, "unit": "%"}, {"measurement": "TI Sleep item 12/5: Prevented n", "setting": "[1]; Baseline, 50 mg/d, N = 106", "value": 7}, {"measurement": "TI Sleep item 12/5: affected (%)", "setting": "[1]; Baseline, 50 mg/d, N = 106", "value": 66.0, "unit": "%"}, {"measurement": "TI Sleep item 12/5: affected n", "setting": "[1]; Baseline, 50 mg/d, N = 106", "value": 70}, {"measurement": "TI Sleep item 12/5: no effect (%)", "setting": "[1]; Baseline, 50 mg/d, N = 106", "value": 27.4, "unit": "%"}, {"measurement": "TI Sleep item 12/5: no effect n", "setting": "[1]; Baseline, 50 mg/d, N = 106", "value": 29}, {"measurement": "TI Sleep item 12/5: Prevented (%)", "setting": "[1]; Baseline, 75 mg/d, N = 99", "value": 8.1, "unit": "%"}, {"measurement": "TI Sleep item 12/5: Prevented n", "setting": "[1]; Baseline, 75 mg/d, N = 99", "value": 8}, {"measurement": "TI Sleep item 12/5: affected (%)", "setting": "[1]; Baseline, 75 mg/d, N = 99", "value": 68.7, "unit": "%"}, {"measurement": "TI Sleep item 12/5: affected n", "setting": "[1]; Baseline, 75 mg/d, N = 99", "value": 68}, {"measurement": "TI Sleep item 12/5: no effect (%)", "setting": "[1]; Baseline, 75 mg/d, N = 99", "value": 23.2, "unit": "%"}, {"measurement": "TI Sleep item 12/5: no effect n", "setting": "[1]; Baseline, 75 mg/d, N = 99", "value": 23}, {"measurement": "TI Sleep item 12/5: Prevented (%)", "setting": "[1]; [4]", "value": 3.0, "unit": "%"}, {"measurement": "TI Sleep item 12/5: Prevented n", "setting": "[1]; [4]", "value": 3}, {"measurement": "TI Sleep item 12/5: affected (%)", "setting": "[1]; [4]", "value": 65.0, "unit": "%"}, {"measurement": "TI Sleep item 12/5: affected n", "setting": "[1]; [4]", "value": 65}, {"measurement": "TI Sleep item 12/5: no effect (%)", "setting": "[1]; [4]", "value": 32.0, "unit": "%"}, {"measurement": "TI Sleep item 12/5: no effect n", "setting": "[1]; [4]", "value": 32}, {"measurement": "TI Sleep item 12/5: Prevented (%)", "setting": "[1]; [5]", "value": 1.1, "unit": "%"}, {"measurement": "TI Sleep item 12/5: Prevented n", "setting": "[1]; [5]", "value": 1}, {"measurement": "TI Sleep item 12/5: affected (%)", "setting": "[1]; [5]", "value": 57.9, "unit": "%"}, {"measurement": "TI Sleep item 12/5: affected n", "setting": "[1]; [5]", "value": 55}, {"measurement": "TI Sleep item 12/5: no effect (%)", "setting": "[1]; [5]", "value": 41.1, "unit": "%"}, {"measurement": "TI Sleep item 12/5: no effect n", "setting": "[1]; [5]", "value": 39}, {"measurement": "TI Sleep item 12/5: Prevented (%)", "setting": "[1]; [6]", "value": 3.4, "unit": "%"}, {"measurement": "TI Sleep item 12/5: Prevented n", "setting": "[1]; [6]", "value": 3}, {"measurement": "TI Sleep item 12/5: affected (%)", "setting": "[1]; [6]", "value": 57.3, "unit": "%"}, {"measurement": "TI Sleep item 12/5: affected n", "setting": "[1]; [6]", "value": 51}, {"measurement": "TI Sleep item 12/5: no effect (%)", "setting": "[1]; [6]", "value": 39.3, "unit": "%"}, {"measurement": "TI Sleep item 12/5: no effect n", "setting": "[1]; [6]", "value": 35}, {"measurement": "TI Sleep item 12/5: Prevented (%)", "setting": "[1]; [7]", "value": 2.2, "unit": "%"}, {"measurement": "TI Sleep item 12/5: Prevented n", "setting": "[1]; [7]", "value": 2}, {"measurement": "TI Sleep item 12/5: affected (%)", "setting": "[1]; [7]", "value": 65.2, "unit": "%"}, {"measurement": "TI Sleep item 12/5: affected n", "setting": "[1]; [7]", "value": 58}, {"measurement": "TI Sleep item 12/5: no effect (%)", "setting": "[1]; [7]", "value": 32.6, "unit": "%"}, {"measurement": "TI Sleep item 12/5: no effect n", "setting": "[1]; [7]", "value": 29}, {"measurement": "TI Sleep item 12/5: Prevented (%)", "setting": "[1]; [8]", "value": 1.3, "unit": "%"}, {"measurement": "TI Sleep item 12/5: Prevented n", "setting": "[1]; [8]", "value": 1}, {"measurement": "TI Sleep item 12/5: affected (%)", "setting": "[1]; [8]", "value": 48.8, "unit": "%"}, {"measurement": "TI Sleep item 12/5: affected n", "setting": "[1]; [8]", "value": 39}, {"measurement": "TI Sleep item 12/5: no effect (%)", "setting": "[1]; [8]", "value": 50.0, "unit": "%"}, {"measurement": "TI Sleep item 12/5: no effect n", "setting": "[1]; [8]", "value": 40}, {"measurement": "TI Sleep item 12/5: Prevented (%)", "setting": "[1]; [9]", "value": 6.3, "unit": "%"}, {"measurement": "TI Sleep item 12/5: Prevented n", "setting": "[1]; [9]", "value": 4}, {"measurement": "TI Sleep item 12/5: affected (%)", "setting": "[1]; [9]", "value": 50.0, "unit": "%"}, {"measurement": "TI Sleep item 12/5: affected n", "setting": "[1]; [9]", "value": 32}, {"measurement": "TI Sleep item 12/5: no effect (%)", "setting": "[1]; [9]", "value": 43.8, "unit": "%"}, {"measurement": "TI Sleep item 12/5: no effect n", "setting": "[1]; [9]", "value": 28}, {"measurement": "improvement of sleep, question 12/5 of the structured tinnitus interview", "setting": "[1]; final daily doses of 50 or 75 mg, after 16 weeks of double-blind treatment, distinct from placebo or low-dose (25 mg)", "value": "clear improvement of their sleep"}, {"measurement": "activity at alpha9/alpha10 nicotinic receptor", "setting": "[2]", "value": "activity as an alpha9/alpha10 nicotinic receptor antagonist"}, {"measurement": "improvement of tinnitus as measured by the TBF-12", "setting": "[3]", "value": "clear improvement of their tinnitus"}]}
